From US6777237B2, “Bioconjugates and delivery of bioactive agents” (University of Utah Research Foundation, priority 1996, dated 2004)
Blank lines part the entries; values can stand above or below the molecule they belong to.

Assays:
HCT-116 cell line = assay: MTT cell viability assay, HCT-116 cell line; format: cell-based, human; details: for IC50: HCT-116
RD-995 cell line = assay: MTT cell viability assay, RD-995 cell line; format: cell-based, mouse
HL-60 cell line = assay: MTT cell viability assay, HL-60 cell line; format: cell-based, human; details: for IC50: HL-60
B-16 cell line = assay: MTT cell viability assay, B-16 cell line; format: cell-based, mouse
[1] = Thermal stability of bioconjugates in media (UV-vis, then photolysis check); format: physicochemical
Meth-A cell line = assay: MTT cell viability assay, Meth-A cell line; format: cell-based, mouse
[2] = Anaerobic continuous-wave photolysis of methylcob(III)alamin; format: physicochemical; details: 514 nm light from an Argon-ion laser
Protocol: A protocol for a typical anaerobic continuous-wave photolysis of methylcob(III)alamin or CH3Cbl^III is as follows. An aqueous solution of 200 μM CH3Cbl^III and 50 mM K^+ Hepes pH 7.3 is placed in a 1 cm quartz cuvette. Samples that are to be photolyzed under anaerobic conditions are either subjected to repeated freeze-pump-thaw cycles, or purged with Ar for 40 minutes immediately prior to photolysis and sealed. Continuous-wave visible light irradiation is accomplished at the desired wavelength with an Ar^+ pumped dye laser. The incident light on the face of the cuvette is reduced to 12 mW cm^−2 with neutral density filters. The light flux is determined by potassium ferrioxalate actinomety and by a Scientech surface-reading thermopile. The cuvette is placed in a thermostated cell holder at 25-37° C. […] The magnetic field within the area of the cuvette is homogeneous to within 2% and the long term stability is better than 0.5% as monitored by a transverse Hall probe and digital teslameter.
Absorption spectra from 300-600 nm are recorded in one second with a diode array spectrophotometer at variable time intervals from 10 seconds to 2 minutes (depending upon the fluence of the photolyzing light source) for a total of 3 τ1/2. […] The concentration of CH3Cbl^III is determined using the measured absorbance at 350 or 520 nm by the method of Chen and Chance (1993). […]

[3] = Photolysis (10 min irradiation, 1 h after treatment)
[4] = Homo sapiens, unconjugated chlorambucil
[5] = Mus musculus, unconjugated chlorambucil

Molecule: 2-[4-(4′-[bis-(2-chloroethyl)amino]phenyl)butyroxy]ethylcob(III)alamin [compound 3]
LD50 (HCT-116 cell line; HCT-116, FIG. 5, brief irradiation with red light 12 hours after dosing): 0.08 µM
toxicity (HCT-116 cell line; HCT-116, FIG. 5, no photolysis, at concentrations approaching 100 μM): no substantial toxicity
LD50 (HCT-116 cell line; HCT-116, FIG. 5, photolysis with 10-fold excess of vitamin B12 added): 2 µM
IC50 (HCT-116 cell line; [3]): 1.7 µM
IC50 (RD-995 cell line; [3]): 0.2 µM
LD50 (HL-60 cell line; HL-60, FIG. 6, bioconjugate, no photolysis): 0.2 µM
fold better than unconjugated chlorambucil standard (LD50) (HL-60 cell line; HL-60, FIG. 6, no photolysis): at least 2 fold
toxicity (HL-60 cell line; HL-60, FIG. 6, with addition of 10 equivalents of vitamin B12, no photolysis): absence of toxicity
IC50 (HL-60 cell line; No Photolysis): 3.2 µM
IC50 (B-16 cell line; [3]): 0.6 µM
thermal lability [1]: thermal lability
IC50 (Meth-A cell line; No Photolysis): 210 µM
IC50 (Meth-A cell line; [3]): 0.2 µM

Molecule: 4-[4′-(bis-[2-chloroethyl]amino)phenyl]butyroylcob(III)alamin [compound 4]
IC50 (HCT-116 cell line; [3]): 1.1 µM
IC50 (RD-995 cell line; [3]): 0.3 µM
IC50 (HL-60 cell line; No Photolysis): 8.9 µM
IC50 (B-16 cell line; [3]): 0.3 µM
thermal lability [1]: thermal lability
IC50 (Meth-A cell line; No Photolysis): 84.2 µM
IC50 (Meth-A cell line; [3]): 0.3 µM

photolysis quantum yield [2]: about 0.3
Molecule: C/C1=C2/[N-][C@H]([C@H](CC(N)=O)[C@@]2(C)CCC(=O)NC[C@@H](C)OP(=O)([O-])O[C@H]2[C@@H](O)[C@@H](n3cnc4cc(C)c(C)cc43)O[C@@H]2CO)[C@]2(C)N=C(/C(C)=C3N=C(/C=C4N=C1[C@@H](CCC(N)=O)C\4(C)C)[C@@H](CCC(N)=O)[C@]\3(C)CC(N)=O)[C@@H](CCC(N)=O)[C@]2(C)CC(N)=O.[CH3-].[Co] [CH3Cbl^III, methylcob(III)alamin]

Molecule: O=C(O)CCCc1ccc(N(CCCl)CCCl)cc1 [Chlorambucil, reference compound]
LD50 (HCT-116 cell line; HCT-116, FIG. 5, chlorambucil alone): about 2 μM
IC50 (HCT-116 cell line; [4]): 20.8 µM
IC50 (RD-995 cell line; [5]): 1.1 µM
LD50 (HL-60 cell line; HL-60, FIG. 6, unconjugated chlorambucil standard): 0.5 µM
IC50 (HL-60 cell line; [4]): 5.8 µM
IC50 (B-16 cell line; Mus musculus, B16, unconjugated chlorambucil): 1.4 µM
IC50 (Meth-A cell line; [5]): 1.8 µM
